{
  "source": "paper PMC7114321",
  "about": "(Antiviral Research, 2005)",
  "key": {"in vitro": {"test": "in vitro", "settings": "African green monkey, CC50 of cell death"}, "Sindbis virus": {"tested_on": "Sindbis virus", "settings": "cited from earlier work"}},
  "data": [
    {"compound": "C=CCC(=NOS(=O)(=O)O)S[C@@H]1O[C@H](CO)[C@@H](O)[C@H](O)[C@H]1O", "note": "(stereo in doubt) [Sinigrin]", "values": [
      {"measurement": "CC50", "setting": "Vero cells", "value": "> 10000", "unit": "µM"},
      {"measurement": "CC50 of cell death", "setting": "Vero cells", "value": ">5000 (>10,000 μM) μg/ml"}
    ]},
    {"compound": "O=C1/C(=C2\\Nc3ccccc3C2=O)Nc2ccccc21", "note": "[Indigo]", "values": [
      {"measurement": "CC50", "setting": "in vitro", "value": 917, "unit": "µg/mL"}
    ]},
    {"compound": "COc1ccc([C@@H]2CC(=O)c3c(O)cc(O)cc3O2)cc1O", "note": "[Hesperetin]", "values": [
      {"measurement": "IC50, inhibitory activity on Sindbis virus infection", "setting": "Sindbis virus", "value": 20.5, "unit": "µg/mL"},
      {"measurement": "IC50", "setting": "Sindbis virus; read-out: IC50, inhibitory activity on Sindbis virus infection", "value": "~68", "unit": "µM"}
    ]}
  ]
}
